In patent publication US6479435B1, “Diaryl ethers and processes for their preparation and herbicidal and desiccant compositions containing them” (ISK Americas Incorporated, priority 1997, dated 2002):

Columns and labels:
Format in all cases: in vivo
[1] = tested on: lambsquarters (Chenopodium album, CHEAL); test: Post-emerge greenhouse herbicide test, phytotoxicity rating; settings: 14 days after application; for phytotoxicity rating CHEAL: scale 0-100
Outline: (§1)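 Scores use a 0 (no damage) to 100 (complete kill) scale, taken 14 days after a foliar spray. Acetone solutions with 0.25% v/v non-ionic surfactant were applied by track sprayer at 187 l/ha and 63-1000 g ai/ha to bottom-watered 2-3 leaf plants.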

[2] = tested on: green foxtail (Setaria viridis, SETVI); test: as above; settings: 14 days after application; for phytotoxicity rating SETVI: scale 0-100
Outline: as §1

[3] = tested on: Johnsongrass (Sorghum halepense, SORHA); test: as above; settings: 14 days after application; for phytotoxicity rating SORHA: scale 0-100
Outline: as §1

[4] = tested on: ivyleaf morningglory (Ipomoea hederacea, IPOHE); test: as above; settings: 14 days after application; for phytotoxicity rating IPOHE: scale 0-100
Outline: as §1

[5] = tested on: large crabgrass (Digitaria sanguinalis, DIGSA); test: as above; settings: 14 days after application; for phytotoxicity rating DIGSA: scale 0-100
Outline: as §1

[6] = tested on: velvetleaf (Abutilon theophrasti, ABUTH); test: as above; settings: 14 days after application; for phytotoxicity rating ABUTH: scale 0-100
Outline: as §1

[7] = tested on: barnyardgrass (Echinochloa crusgalli, ECHCG); test: as above; settings: 14 days after application; for phytotoxicity rating ECHCG: scale 0-100
Outline: as §1

[8] = tested on: redroot pigweed (Amaranthus retroflexus, AMARE); test: as above; settings: 14 days after application; for phytotoxicity rating AMARE: scale 0-100
Outline: as §1

[9] = tested on: soybean (Glycine max L., var. Pella 86, SOY); test: Post-emerge greenhouse test, crop damage rating; design: key to crop damage rating SOY: 0-100 scale: 0 = no damage, 100 = complete death of all plants; settings: 14 days after application; for crop damage rating SOY: scale 0-100
Outline: as §1

[10] = tested on: soybean (Glycine max L., var. Pella 86, SOY); test: Pre-emerge greenhouse test, crop damage rating; design: key to SOY crop damage rating: 0 = no damage, 100 = complete death of all plants; settings: 14 days after application, rating scale 0-100
Outline: (§2)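 Visual 0–100 injury rating (100 = all plants dead) taken 14 days after treatment. Rates of 125–1000 g ai/ha in acetone, 187 l/ha, were sprayed onto soil one day post-sowing; pots were surface-watered to incorporate, then bottom-watered.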

[11] = tested on: upland rice (Oryza sp., var.Tebonnet, RICE); test: Post-emerge greenhouse test, crop damage rating; settings: 14 days after application; for crop damage rating RICE: scale 0-100
Outline: as §1

[12] = tested on: field corn (Zea mays L., var. Dekalb 535, CORN); test: Post-emerge greenhouse test, crop damage rating; settings: 14 days after application; for crop damage rating CORN: scale 0-100
Outline: as §1

[13] = tested on: upland rice (Oryza sp., var.Tebonnet, RICE); test: Pre-emerge greenhouse test, crop damage rating; settings: 14 days after application, rating scale 0-100
Outline: as §2

[14] = tested on: field corn (Zea mays L., var. Dekalb 535, CORN); test: Pre-emerge greenhouse test, crop damage rating; settings: 14 days after application, rating scale 0-100
Outline: as §2

[15] = tested on: lambsquarters (Chenopodium album, CHEAL); test: Pre-emerge greenhouse herbicide test, phytotoxicity rating; settings: 14 days after application, rating scale 0-100
Outline: as §2

[16] = tested on: sicklepod (Cassia obtusifolia, CASOB); test: as above; settings: 14 days after application, rating scale 0-100
Outline: as §2

[17] = tested on: green foxtail (Setaria viridis, SETVI); test: as above; settings: 14 days after application, rating scale 0-100
Outline: as §2

[18] = tested on: Johnsongrass (Sorghum halepense, SORHA); test: as above; settings: 14 days after application, rating scale 0-100
Outline: as §2

[19] = tested on: common ragweed (Ambrosia artemisiifolia L., AMBEL); test: as above; settings: 14 days after application, rating scale 0-100
Outline: as §2

[20] = tested on: ivyleaf morningglory (Ipomoea hederacea, IPOHE); test: as above; settings: 14 days after application, rating scale 0-100
Outline: as §2

[21] = tested on: large crabgrass (Digitaria sanguinalis, DIGSA); test: as above; settings: 14 days after application, rating scale 0-100
Outline: as §2

[22] = tested on: velvetleaf (Abutilon theophrasti, ABUTH); test: as above; settings: 14 days after application, rating scale 0-100
Outline: as §2

[23] = tested on: barnyardgrass (Echinochloa crusgalli, ECHCG); test: as above; settings: 14 days after application, rating scale 0-100
Outline: as §2

[24] = tested on: redroot pigweed (Amaranthus retroflexus, AMARE); test: as above; settings: 14 days after application, rating scale 0-100
Outline: as §2

[25] = tested on: common ragweed (Ambrosia artemisiifolia L., AMBEL); test: Post-emerge greenhouse herbicide test, phytotoxicity rating; settings: 14 days after application; for phytotoxicity rating AMBEL: scale 0-100
Outline: as §1

Nc1ccc(Oc2cc(-n3c(=O)n4n(c3=S)CCCC4)c(F)cc2Cl)nc1 [Compound 8-24]
phytotoxicity rating CHEAL ([1]; rate 63 g ai/ha): 50
phytotoxicity rating CHEAL ([1]; rate 500 g ai/ha): 80
phytotoxicity rating SETVI ([2]; rate 63 g ai/ha): 0
phytotoxicity rating SETVI ([2]; rate 500 g ai/ha): 20
phytotoxicity rating SORHA ([3]; rate 63 g ai/ha): 0
phytotoxicity rating SORHA ([3]; rate 500 g ai/ha): 50
phytotoxicity rating IPOHE ([4]; rate 63 g ai/ha): 70
phytotoxicity rating IPOHE ([4]; rate 500 g ai/ha): 80
phytotoxicity rating DIGSA ([5]; rate 63 g ai/ha): 50
phytotoxicity rating DIGSA ([5]; rate 500 g ai/ha): 20
phytotoxicity rating ABUTH ([6]; rate 63 g ai/ha): 95
phytotoxicity rating ABUTH ([6]; rate 500 g ai/ha): 100
phytotoxicity rating ECHCG ([7]; rate 63 g ai/ha): 10
phytotoxicity rating ECHCG ([7]; rate 500 g ai/ha): 0
phytotoxicity rating AMARE ([8]; rate 63 g ai/ha): 100
phytotoxicity rating AMARE ([8]; rate 500 g ai/ha): 100
crop damage rating SOY ([9]; rate 63 g ai/ha): 0
crop damage rating SOY ([9]; rate 500 g ai/ha): 40
SOY crop damage rating ([10]; Rate 125 g al/ha): 0
SOY crop damage rating ([10]; Rate 500 g al/ha): 30
crop damage rating RICE ([11]; rate 63 g ai/ha): 20
crop damage rating RICE ([11]; rate 500 g ai/ha): 30
crop damage rating CORN ([12]; rate 63 g ai/ha): 10
crop damage rating CORN ([12]; rate 500 g ai/ha): 10
RICE crop damage rating ([13]; Rate 125 g al/ha): 0
RICE crop damage rating ([13]; Rate 500 g al/ha): 20
CORN crop damage rating ([14]; Rate 125 g al/ha): 0
CORN crop damage rating ([14]; Rate 500 g al/ha): 0
CHEAL phytotoxicity rating ([15]; Rate 125 g al/ha): 99
CHEAL phytotoxicity rating ([15]; Rate 500 g al/ha): 100
CASOB phytotoxicity rating ([16]; Rate 125 g al/ha): 70
CASOB phytotoxicity rating ([16]; Rate 500 g al/ha): 50
SETVI phytotoxicity rating ([17]; Rate 125 g al/ha): 30
SETVI phytotoxicity rating ([17]; Rate 500 g al/ha): 80
SORHA phytotoxicity rating ([18]; Rate 125 g al/ha): 20
SORHA phytotoxicity rating ([18]; Rate 500 g al/ha): 20
AMBEL phytotoxicity rating ([19]; Rate 125 g al/ha): 80
AMBEL phytotoxicity rating ([19]; Rate 500 g al/ha): 100
IPOHE phytotoxicity rating ([20]; Rate 125 g al/ha): 0
IPOHE phytotoxicity rating ([20]; Rate 500 g al/ha): 70
DIGSA phytotoxicity rating ([21]; Rate 125 g al/ha): 0
DIGSA phytotoxicity rating ([21]; Rate 500 g al/ha): 30
ABUTH phytotoxicity rating ([22]; Rate 125 g al/ha): 100
ABUTH phytotoxicity rating ([22]; Rate 500 g al/ha): 100
ECHCG phytotoxicity rating ([23]; Rate 125 g al/ha): 0
ECHCG phytotoxicity rating ([23]; Rate 500 g al/ha): 40
AMARE phytotoxicity rating ([24]; Rate 125 g al/ha): 95
AMARE phytotoxicity rating ([24]; Rate 500 g al/ha): 100
phytotoxicity rating AMBEL ([25]; rate 63 g ai/ha): 0
phytotoxicity rating AMBEL ([25]; rate 500 g ai/ha): 50

Cn1nc(-c2cc(Oc3ncccc3[N+](=O)[O-])c(Cl)cc2F)c(Cl)c1C(F)(F)F [Compound 1-1]
CHEAL phytotoxicity rating (0-100) ([1]; 500 g al/ha): 100
SETVI phytotoxicity rating (0-100) ([2]; 500 g al/ha): 100
SORHA phytotoxicity rating (0-100) ([3]; 500 g al/ha): 90
IPOHE phytotoxicity rating (0-100) ([4]; 500 g al/ha): 100
DIGSA phytotoxicity rating (0-100) ([5]; 500 g al/ha): 95
ABUTH phytotoxicity rating (0-100) ([6]; 500 g al/ha): 100
ECHCG phytotoxicity rating (0-100) ([7]; 500 g al/ha): 100
AMARE phytotoxicity rating (0-100) ([8]; 500 g al/ha): 100
SOY crop damage rating (0-100) ([9]; 500 g al/ha): 100
crop damage rating SOY ([10]; 500 g ai/ha): 10
RICE crop damage rating (0-100) ([11]; 500 g al/ha): 90
CORN crop damage rating (0-100) ([12]; 500 g al/ha): 60
crop damage rating RICE ([13]; 500 g ai/ha): 20
crop damage rating CORN ([14]; 500 g ai/ha): 20
phytotoxicity rating CHEAL ([15]; 500 g ai/ha): 100
phytotoxicity rating CASOB ([16]; 500 g ai/ha): 20
phytotoxicity rating SETVI ([17]; 500 g ai/ha): 100
phytotoxicity rating SORHA ([18]; 500 g ai/ha): 70
phytotoxicity rating AMBEL ([19]; 500 g ai/ha): 50
phytotoxicity rating IPOHE ([20]; 500 g ai/ha): 10
phytotoxicity rating DIGSA ([21]; 500 g ai/ha): 90
phytotoxicity rating ABUTH ([22]; 500 g ai/ha): 60
phytotoxicity rating ECHCG ([23]; 500 g ai/ha): 50
phytotoxicity rating AMARE ([24]; 500 g ai/ha): 100
AMBEL phytotoxicity rating (0-100) ([25]; 500 g al/ha): 100
